Several values for one entry are separate records, joined by “and”; a condition that tells them apart may be missing. Equal values may be shown once.
Columns and labels:
Huh7 cells = conditions: at 10 μM, compared with vehicle control, n = 1
HCoV‐229E = experiment: microbe, parasite or virus in culture; type: cell-based; conditions: at 10 μM, compared with vehicle control, Huh7 cells, n = 1; for inhibition at 10 µM: Human coronavirus 229E, Huh-7, read-out: Protective effects HCoV-229E %

## O[C@H]1C=C[C@@]23CCN(Cc4cc5c(cc42)OCO5)[C@@H]3C1 [Compound 14, (−)‐crinine]
Huh7 cells
  Cytotoxicity to the host Huh7 cells %: — (Non-toxic (insignificant cytotoxic effects, below 20%))
HCoV‐229E
  Protective effects HCoV-229E %: — (Not active (insignificant protective effects below 20%))

## COc1cc2c(cc1OC)-c1c(OC)c(OC)cc3ccnc(c13)C2=O [Compound 61, oxoglaucine]
Huh7 cells
  Cytotoxicity to the host Huh7 cells %: — (Non-toxic (insignificant cytotoxic effects, below 20%))
HCoV‐229E
  inhibition at 10 µM: < 20%

## COc1ccc2c(c1OC)[C@@H]1Cc3cc4c(cc3[C@H](C2)N1C)OCO4 [Compound 36, O‐methylneocarychine]
Huh7 cells
  Cytotoxicity to the host Huh7 cells %: — (Non-toxic (insignificant cytotoxic effects, below 20%))
HCoV‐229E
  Protective effects HCoV-229E %: — (Not active (insignificant protective effects below 20%))

## (−)‐fumarophycine hydrochloride [Compound 37]
Huh7 cells
  Cytotoxicity to the host Huh7 cells %: — (Non-toxic (insignificant cytotoxic effects, below 20%))
HCoV‐229E
  Protective effects HCoV-229E %: — (Not active (insignificant protective effects below 20%))

## CCOC1c2c(ccc(OC)c2OC)-c2ccc3cc4c(cc3c2N1C)OCO4 (stereo not shown) [Compound 52, 6‐ethoxydihydrochelerytrine]
Huh7 cells
  Cytotoxicity to the host Huh7 cells %: 80% and > 80%
HCoV‐229E
  Protective effects HCoV-229E %: — (Not active (insignificant protective effects below 20%))

## COc1cc2c(cc1OC)C1Cc3ccc4c(c3CN1CC2)OCO4 (stereo not drawn) [Compound 43, (−)‐sinactine]
Huh7 cells
  Cytotoxicity to the host Huh7 cells %: — (Non-toxic (insignificant cytotoxic effects, below 20%))
HCoV‐229E
  Protective effects HCoV-229E %: — (Not active (insignificant protective effects below 20%))

## COc1ccc2c(c1OC)C(=O)O[C@@H]2[C@H]1c2c(cc3c(c2OC)OCO3)CCN1C [Compound 55, (−)‐narcotine]
Huh7 cells
  Cytotoxicity to the host Huh7 cells %: 20%
HCoV‐229E
  inhibition at 10 µM: < 20%

## COc1ccc2cc3n(c(=O)c2c1OC)CCc1cc2c(cc1-3)OCO2 [Compound 22, 8‐oxoberberine]
Huh7 cells
  Cytotoxicity to the host Huh7 cells %: — (Non-toxic (insignificant cytotoxic effects, below 20%))
HCoV‐229E
  Protective effects HCoV-229E %: — (Not active (insignificant protective effects below 20%))

## (−)‐berkristine [Compound 21]
Huh7 cells
  Cytotoxicity to the host Huh7 cells %: — (Non-toxic (insignificant cytotoxic effects, below 20%))
HCoV‐229E
  Protective effects HCoV-229E %: 65%

## COc1cc2c(cc1OC)C1(Cc3ccc4c(c3C1OC(C)=O)OCO4)N(C)CC2 (stereo not drawn) [Compound 39, (−)‐O‐methylfumarophycine]
Huh7 cells
  Cytotoxicity to the host Huh7 cells %: — (Non-toxic (insignificant cytotoxic effects, below 20%))
HCoV‐229E
  Protective effects HCoV-229E %: — (Not active (insignificant protective effects below 20%))

## (−)‐O‐methylcaryachine [Compound 35]
Huh7 cells
  Cytotoxicity to the host Huh7 cells %: — (Non-toxic (insignificant cytotoxic effects, below 20%))
HCoV‐229E
  Protective effects HCoV-229E %: — (Not active (insignificant protective effects below 20%))

## CN1Cc2c(ccc3c2OCO3)[C@@H]2[C@H]1c1cc3c(cc1C[C@@H]2O)OCO3 [Compound 50, chelidonine]
Huh7 cells
  Cytotoxicity to the host Huh7 cells %: 35% and 35%–40%
HCoV‐229E
  inhibition at 10 µM: < 20%

## COc1cc2c(cc1O)C[C@@H]1NCCc3cc(OC)c(OC)c-2c31 [Compound 58, (+)‐laurotetanine]
Huh7 cells
  Cytotoxicity to the host Huh7 cells %: — (Non-toxic (insignificant cytotoxic effects, below 20%))
HCoV‐229E
  Protective effects HCoV-229E %: — (Not active (insignificant protective effects below 20%))

## COc1cc2c(cc1O)[C@@H]1Cc3ccc(OC)c(OC)c3CN1CC2 [Compound 32, tetrahydrocolumbamine]
Huh7 cells
  Cytotoxicity to the host Huh7 cells %: — (Non-toxic (insignificant cytotoxic effects, below 20%))
HCoV‐229E
  Protective effects HCoV-229E %: — (Not active (insignificant protective effects below 20%))

## CN1CCC2=C[C@H](O)[C@H]3OC(=O)c4cc5c(cc4[C@H]3[C@@H]21)OCO5 [Compound 12, hippeastrine]
Huh7 cells
  Cytotoxicity to the host Huh7 cells %: 25%
HCoV‐229E
  Protective effects HCoV-229E %: — (Not active (insignificant protective effects below 20%))

## COc1ccc(CC2c3cc4c(cc3CCN2C)OCO4)c(C=O)c1OC (stereo not drawn) [Compound 30, (+)‐canadaline]
Huh7 cells
  Cytotoxicity to the host Huh7 cells %: — (Non-toxic (insignificant cytotoxic effects, below 20%))
HCoV‐229E
  Protective effects HCoV-229E %: — (Not active (insignificant protective effects below 20%))

## CN1CCC2=CCC3OC(O)c4cc5c(cc4C3C21)OCO5 (stereo not shown) [Compound 8, oduline]
Huh7 cells
  Cytotoxicity to the host Huh7 cells %: 20%
HCoV‐229E
  Protective effects HCoV-229E %: — (Not active (insignificant protective effects below 20%))

## COc1cc2c(cc1O)[C@@H]1Cc3cc4c(cc3[C@H](C2)N1C)OCO4 [Compound 34, (−)‐caryachine]
Huh7 cells
  Cytotoxicity to the host Huh7 cells %: — (Non-toxic (insignificant cytotoxic effects, below 20%))
HCoV‐229E
  Protective effects HCoV-229E %: — (Not active (insignificant protective effects below 20%))

## O[C@@H]1Cc2cc3c(cc2[C@@H]2NCc4c(ccc5c4OCO5)[C@H]12)OCO3 [Compound 48, norchelidonine]
Huh7 cells
  Cytotoxicity to the host Huh7 cells %: 50%
HCoV‐229E
  inhibition at 10 µM: 50%

## N‐methyllaurotetanine [Compound 56]
Huh7 cells
  Cytotoxicity to the host Huh7 cells %: — (Non-toxic (insignificant cytotoxic effects, below 20%))
HCoV‐229E
  Protective effects HCoV-229E %: — (Not active (insignificant protective effects below 20%))

## COc1cc2c(cc1O)[C@@H]1[C@H](O)[C@@H](OC)C=C3CCN(C2)[C@H]31 [Compound 4, 9‐O‐demethylgalanthine]
Huh7 cells
  Cytotoxicity to the host Huh7 cells %: — (Non-toxic (insignificant cytotoxic effects, below 20%))
HCoV‐229E
  Protective effects HCoV-229E %: — (Not active (insignificant protective effects below 20%))

## COc1cc2c(cc1OC)[C@H]1[C@@H](C)c3ccc(OC)c(OC)c3CN1CC2 [Compound 31, (+)‐corydaline]
Huh7 cells
  Cytotoxicity to the host Huh7 cells %: — (Non-toxic (insignificant cytotoxic effects, below 20%))
HCoV‐229E
  Protective effects HCoV-229E %: — (Not active (insignificant protective effects below 20%))

## COC1=C[C@]23CCN(C)[C@H](Cc4ccc(OC)c(O)c42)C3=CC1=O [Compound 59, (−)‐salutaridine]
Huh7 cells
  Cytotoxicity to the host Huh7 cells %: — (Non-toxic (insignificant cytotoxic effects, below 20%))
HCoV‐229E
  Protective effects HCoV-229E %: — (Not active (insignificant protective effects below 20%))

## seco‐isopowellaminone [Compound 6]
Huh7 cells
  Cytotoxicity to the host Huh7 cells %: 20%
HCoV‐229E
  Protective effects HCoV-229E %: — (Not active (insignificant protective effects below 20%))

## O[C@H]1C=C[C@@]23c4cc5c(cc4CN(C[C@@H]2O)[C@H]3C1)OCO5 [Compound 2, (+)‐hamayne]
Huh7 cells
  Cytotoxicity to the host Huh7 cells %: — (Non-toxic (insignificant cytotoxic effects, below 20%))
HCoV‐229E
  Protective effects HCoV-229E %: — (Not active (insignificant protective effects below 20%))

## (−)‐corypalmine [Compound 25]
Huh7 cells
  Cytotoxicity to the host Huh7 cells %: — (Non-toxic (insignificant cytotoxic effects, below 20%))
HCoV‐229E
  Protective effects HCoV-229E %: — (Not active (insignificant protective effects below 20%))

## (±)‐O‐methylfumarofine [Compound 44]
Huh7 cells
  Cytotoxicity to the host Huh7 cells %: — (Non-toxic (insignificant cytotoxic effects, below 20%))
HCoV‐229E
  Protective effects HCoV-229E %: — (Not active (insignificant protective effects below 20%))

## (−)‐undulatine [Compound 13]
Huh7 cells
  Cytotoxicity to the host Huh7 cells %: — (Non-toxic (insignificant cytotoxic effects, below 20%))
HCoV‐229E
  Protective effects HCoV-229E %: — (Not active (insignificant protective effects below 20%))

## CO[C@@H]1C=C[C@@]23c4cc5c(cc4CN(C[C@@H]2O)[C@H]3C1)OCO5 [Compound 3, (+)‐haemanthamine]
Huh7 cells
  Cytotoxicity to the host Huh7 cells %: 50%
HCoV‐229E
  inhibition at 10 µM: 50%

Reference: PMC12497685, “Anticoronavirus Isoquinoline Alkaloids: Unraveling the Secrets of Their Structure–Activity Relationship” (Influenza and Other Respiratory Viruses, 2025)
